# In publication PMC9469649 (Bioorganic & medicinal chemistry letters, 2022):
# Assays:
# [1] = molecular target: Kv7.2 wild type (WT) channels (Homo sapiens, UniProt O43526); test: SyncroPatch 384PE automated whole cell patch-clamp, wild type Kv7.2; assay type: cell-based
# [2] = molecular target: Kv7.2/7.3 heterotetramers (Homo sapiens, UniProt O43525+O43526); test: Whole cell patch-clamp electrophysiology, transfected CHO cells, Kv7.2/7.3; assay type: cell-based
# Kv7.3 over Kv7.2 = settings: cited from earlier work
# Kv7.2 wild type (WT) channels, sequence (O43526 whole entry): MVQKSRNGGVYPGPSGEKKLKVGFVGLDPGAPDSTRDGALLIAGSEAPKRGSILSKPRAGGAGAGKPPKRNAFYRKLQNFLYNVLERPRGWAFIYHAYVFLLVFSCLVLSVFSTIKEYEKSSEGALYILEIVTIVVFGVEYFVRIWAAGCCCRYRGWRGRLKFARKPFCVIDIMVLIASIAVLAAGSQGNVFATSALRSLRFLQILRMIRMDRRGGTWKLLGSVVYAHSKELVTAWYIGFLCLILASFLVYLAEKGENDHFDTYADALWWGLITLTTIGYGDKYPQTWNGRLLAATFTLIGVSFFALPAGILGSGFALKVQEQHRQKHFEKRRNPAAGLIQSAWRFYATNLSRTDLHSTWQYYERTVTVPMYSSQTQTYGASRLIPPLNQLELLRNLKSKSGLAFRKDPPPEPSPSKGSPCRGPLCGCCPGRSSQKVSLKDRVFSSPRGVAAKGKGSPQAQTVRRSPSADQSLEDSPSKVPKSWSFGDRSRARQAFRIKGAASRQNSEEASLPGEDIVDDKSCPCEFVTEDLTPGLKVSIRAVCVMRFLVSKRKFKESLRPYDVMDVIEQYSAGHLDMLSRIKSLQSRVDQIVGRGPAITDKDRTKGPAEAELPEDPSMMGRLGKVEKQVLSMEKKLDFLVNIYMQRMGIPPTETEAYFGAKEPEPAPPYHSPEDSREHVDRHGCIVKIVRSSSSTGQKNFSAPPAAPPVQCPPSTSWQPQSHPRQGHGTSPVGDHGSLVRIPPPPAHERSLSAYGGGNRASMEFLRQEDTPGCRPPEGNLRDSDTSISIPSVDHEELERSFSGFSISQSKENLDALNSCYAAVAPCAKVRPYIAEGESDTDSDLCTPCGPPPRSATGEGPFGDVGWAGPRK
smiles,measurement,setting,value
CCOC(=O)Nc1cc(F)c2c(c1N)S(=O)(=O)CC(c1ccccc1)N2 (centres unmarked) [CH-02],Kv7.2 channel activity,"[1]; SyncroPatch screen, 5 μM",completely inactive
[2H]c1cc(NC(=O)OCC)c(N)c(F)c1NCc1ccc(C(F)(F)F)cc1 [RL-25],activity on Kv7.2 relative to RL-71 (less active),"[1]; from EC50 values, Table 2",20 fold
same,potency on Kv7.2 relative to retigabine (more potent),"[1]; from EC50 values, Table 2",4 fold
Nc1c(NC(=O)OC2CC2)ccc(NCc2ccc(C(F)(F)F)cc2)c1F [RL-56],EC50,[2],~0.02 µM
"CCOC(=O)Nc1ccc(NCc2ccc(F)cc2)cc1N [Retigabine, retigabine]",lower EC50 for Kv7.3 over Kv7.2,Kv7.3 over Kv7.2,ca. 4 fold
